From publication PMC7311426, “An amphipathic peptide with antibiotic activity against multidrug-resistant Gram-negative bacteria” (Nature Communications, 2020)

Columns and labels:
Experiment in all cases: microbe, parasite or virus in culture
P. aeruginosa = P. aeruginosa UNT 138-1 spontaneous mutant
Outline: (§1)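 MICs were scored by eye after 18-20 h static incubation at 37 °C, with bacteria at 5 × 10^5 CFU mL^−1 in MHB. Peptides were serially diluted 2-fold over 12 points, top 128 or 64 μg mL^−1. CAMHB (CLSI) and 1% agarose-MHB variants were also run, at least six replicates.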

E. coli = tested on: E. coli
Outline: as §1

K. pneumoniae = tested on: K. pneumoniae
Outline: as §1

Measured: MIC, broth microdilution

NC[C@H]1O[C@H](O[C@H]2[C@H](O)[C@@H](O[C@H]3O[C@H](CO)[C@@H](O)[C@H](N)[C@H]3O)[C@H](N)C[C@@H]2N)[C@H](N)C[C@@H]1O [TOB]
2 µg/mL: P. aeruginosa; AA139 selection 8X, plate 1, colony 1, drug-free passage 5
0.5, 0.5 µg/mL: P. aeruginosa; AA139 selection 4X, plate 1, colony 7, drug-free passage 1 | P. aeruginosa; AA139 selection 4X, plate 1, colony 7, drug-free passage 5 | P. aeruginosa; AA139 selection 4X, plate 2, colony 2, drug-free passage 1 | P. aeruginosa; AA139 selection 4X, plate 2, colony 2, drug-free passage 5 | P. aeruginosa; AA139 selection 4X, plate 2, colony 4, drug-free passage 1 | P. aeruginosa; AA139 selection 4X, plate 2, colony 4, drug-free passage 5 | P. aeruginosa; AA139 selection 4X, plate 2, colony 6, drug-free passage 1 | P. aeruginosa; AA139 selection 4X, plate 2, colony 6, drug-free passage 5 | P. aeruginosa; AA139 selection 4X, plate 2, colony 7, drug-free passage 1 | P. aeruginosa; AA139 selection 4X, plate 2, colony 7, drug-free passage 5 | P. aeruginosa; AA139 selection 8X, plate 1, colony 3, drug-free passage 1 | P. aeruginosa; AA139 selection 8X, plate 1, colony 3, drug-free passage 5 | P. aeruginosa; AA139 selection 8X, plate 1, colony 5, drug-free passage 1 | P. aeruginosa; AA139 selection 8X, plate 1, colony 5, drug-free passage 5 | P. aeruginosa; AA139 selection 8X, plate 2, colony 1, drug-free passage 1 | P. aeruginosa; AA139 selection 8X, plate 2, colony 1, drug-free passage 5
0.25 µg/mL: K. pneumoniae; K. pneumoniae 3010 spontaneous mutant, AA139 selection 4X, plate 1, colony 1, drug-free passage 5 | K. pneumoniae; K. pneumoniae 3010 spontaneous mutant, AA139 selection 8X, plate 1, colony 1, drug-free passage 5
16 µg/mL: E. coli; E. coli AUD172 spontaneous mutant, AA139 selection 4X, plate 2, colony 2, drug-free passage 5 | K. pneumoniae; K. pneumoniae ST258 parent strain not exposed to drug
8 µg/mL: E. coli; E. coli AUD172 parent strain not exposed to drug | E. coli; E. coli AUD172 spontaneous mutant, AA139 selection 4X, plate 2, colony 2, drug-free passage 1
0.5 µg/mL: P. aeruginosa; AA139 selection 4X, plate 1, colony 5, drug-free passage 5 | P. aeruginosa; AA139 selection 4X, plate 1, colony 6, drug-free passage 5 | P. aeruginosa; AA139 selection 4X, plate 2, colony 3, drug-free passage 5 | P. aeruginosa; AA139 selection 4X, plate 2, colony 5, drug-free passage 5 | P. aeruginosa; AA139 selection 8X, plate 1, colony 1, drug-free passage 1 | P. aeruginosa; AA139 selection 8X, plate 1, colony 2, drug-free passage 5 | P. aeruginosa; AA139 selection 8X, plate 1, colony 4, drug-free passage 5 | K. pneumoniae; K. pneumoniae 3010 parent strain not exposed to drug | K. pneumoniae; K. pneumoniae 3010 spontaneous mutant, AA139 selection 8X, plate 1, colony 1, drug-free passage 1
1, 1 µg/mL: P. aeruginosa; AA139 selection 4X, plate 2, colony 1, drug-free passage 1 | P. aeruginosa; AA139 selection 4X, plate 2, colony 1, drug-free passage 5
16, 16 µg/mL: K. pneumoniae; K. pneumoniae ST258 spontaneous mutant, AA139 selection 4X, plate 1, colony 1, drug-free passage 1 | K. pneumoniae; K. pneumoniae ST258 spontaneous mutant, AA139 selection 4X, plate 1, colony 1, drug-free passage 5
1 µg/mL: P. aeruginosa; AA139 selection 4X, plate 1, colony 6, drug-free passage 1 | P. aeruginosa; AA139 selection 4X, plate 2, colony 3, drug-free passage 1 | P. aeruginosa; AA139 selection 4X, plate 2, colony 5, drug-free passage 1 | P. aeruginosa; AA139 selection 8X, plate 1, colony 2, drug-free passage 1 | P. aeruginosa; AA139 selection 8X, plate 1, colony 4, drug-free passage 1 | K. pneumoniae; K. pneumoniae 3010 spontaneous mutant, AA139 selection 4X, plate 1, colony 1, drug-free passage 1
